Series [1] concerns the target T1, GSK-3β (AA 1-420) (Homo sapiens, UniProt P49841).
T1 construct: GSK-3β (AA 1-420)
Kind of series: Ki determination for the inhibition of GSK-3 (coupled enzyme system). It is filed as biochemical. The following applies: 20 μM ATP, 20 nM GSK-3β, 30° C. The gist of the method: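 GSK-3β (AA 1-420, 20 nM) was run in a pyruvate kinase/LDH-coupled NADH assay in 100 mM HEPES pH 7.5, 10 mM MgCl2, 25 mM NaCl, 1 mM DTT, 1.5% DMSO, with 300 μM phosphopeptide substrate. Compound (0.002–30 μM) was preincubated 10 min at 30° C, then 20 μM ATP was added.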

Series [2] has as its target CDK-2/Cyclin A (Homo sapiens, UniProt P24941). The experiment in a line: CDK-2 inhibition assay (coupled enzyme assay). It is filed as biochemical. The following applies: 25 nM CDK-2/Cyclin A, 30° C. As to the method:
Compounds were screened in the following manner for their ability to inhibit CDK-2 using a standard coupled enzyme assay (Fox et al (1998) Protein Sci 7, 2249).
To an assay stock buffer solution containing 0.1M HEPES 7.5, 10 mM MgCl2, 1 mM DTT, 25 mM NaCl, 2.5 mM phosphoenolpyruvate, […], 30 mg/ml pyruvate kinase, 10 mg/ml lactate dehydrogenase, 100 mM ATP, and 100 μM peptide ([…], American Peptide, Sunnyvale, Calif.) was added a DMSO solution of a compound of the present invention to a final concentration of 30 μM. The resulting mixture was incubated at 30° C. for 10 min.
The reaction was initiated by the addition of 10 μL of CDK-2/Cyclin A stock solution to give a final concentration of 25 nM in the assay. The rates of reaction were obtained by monitoring absorbance at 340 nm over a 5-minute read time at 30° C. using a BioRad Ultramark plate reader (Hercules, Calif.). The Ki values were determined from the rate data as a function of inhibitor concentration.

In series [3] the target is T2, Aurora-2 (Homo sapiens, UniProt O14965).
T2 sequence (O14965 1-403): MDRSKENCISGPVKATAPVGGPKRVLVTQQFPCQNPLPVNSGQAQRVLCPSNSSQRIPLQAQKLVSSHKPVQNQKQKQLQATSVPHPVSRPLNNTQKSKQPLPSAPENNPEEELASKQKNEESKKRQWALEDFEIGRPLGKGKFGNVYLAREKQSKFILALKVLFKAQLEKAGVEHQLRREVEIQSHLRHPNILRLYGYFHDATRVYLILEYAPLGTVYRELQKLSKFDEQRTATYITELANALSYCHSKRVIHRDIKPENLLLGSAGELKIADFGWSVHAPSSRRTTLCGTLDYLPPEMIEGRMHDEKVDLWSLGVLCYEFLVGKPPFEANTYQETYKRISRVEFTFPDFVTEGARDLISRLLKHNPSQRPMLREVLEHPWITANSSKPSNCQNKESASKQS
Kind of series: Ki determination for the inhibition of Aurora-2 (coupled enzyme assay). It is filed as biochemical. The following applies: 70 nM Aurora-2, 30° C. In a few lines: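 Ki came from reaction rates plotted against inhibitor concentration, with rates taken as A340 decrease over 5 min at 30° C. Enzyme (70 nM final) was added after 10 min compound preincubation; stock buffer held […], 800 μM LRRASLG, PK/LDH coupling, pH 7.5.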

Series [4] addresses T3, human Src kinase (Homo sapiens, UniProt P12931).
T3 construct: full length recombinant human Src kinase (from Upstate Biotechnology, cat. no. 14-117); purchased Upstate Biotechnology 14-117; host or cells: baculo viral cells
Kind of series: SRC inhibition assay (radioactivity-based or spectrophotometric assay). The series is classed as biochemical. The following applies: recombinant human Src kinase, assay A or B. In a few lines: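 Full-length recombinant human Src from baculovirus was used. In the radiometric format, enzyme was preincubated 10 min at 30 °C, the reaction was started with ^33P-ATP and run 20 min, then TCA-quenched and filter-counted. The alternative format monitored poly Glu-Tyr phosphorylation by NADH-coupled A340 rate. Ki came from competitive-inhibition fits.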

In series [5] the target is AKT-3 (Homo sapiens, UniProt Q9Y243). The experiment in a line: AKT inhibition assay (coupled enzyme assay). The series is classed as biochemical. The following applies: 45 nM AKT, 170 μM ATP, 30° C. As to the method: Compounds were screened for their ability to inhibit AKT using a standard coupled enzyme assay (Fox et al., Protein Sci., (1998) 7, 2249). Assays were carried out in a mixture of 100 mM HEPES 7.5, 10 mM MgCl2, 25 mM NaCl, 1 mM DTT and 1.5% DMSO. Final substrate concentrations in the assay were 170 μM ATP (Sigma Chemicals) and 200 μM peptide (RPRAATF, American Peptide, Sunnyvale, Calif.). Assays were carried out at 30° C. and 45 nM AKT. Final concentrations of the components of the coupled enzyme system were 2.5 mM phosphoenolpyruvate, 300 μM NADH, 30 μg/ML pyruvate kinase and 10 μg/ml lactate dehydrogenase.
AKT-3, sequence (Q9Y243 whole entry, species assumed): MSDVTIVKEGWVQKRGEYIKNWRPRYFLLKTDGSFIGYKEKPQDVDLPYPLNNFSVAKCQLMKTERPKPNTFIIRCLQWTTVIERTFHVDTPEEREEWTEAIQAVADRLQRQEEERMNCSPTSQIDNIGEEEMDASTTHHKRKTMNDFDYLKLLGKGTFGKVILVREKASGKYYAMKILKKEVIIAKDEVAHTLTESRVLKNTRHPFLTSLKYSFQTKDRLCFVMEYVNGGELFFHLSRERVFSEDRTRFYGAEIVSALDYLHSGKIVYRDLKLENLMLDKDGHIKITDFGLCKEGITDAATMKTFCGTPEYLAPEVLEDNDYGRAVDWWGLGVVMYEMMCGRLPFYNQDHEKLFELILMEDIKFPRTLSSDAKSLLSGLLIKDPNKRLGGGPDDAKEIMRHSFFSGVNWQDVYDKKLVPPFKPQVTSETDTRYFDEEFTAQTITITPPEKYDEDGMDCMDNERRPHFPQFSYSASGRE
An assay stock buffer solution was prepared containing all of the reagents listed above, with the exception of AKT, DTT, and the test compound of interest. 56 μl of the stock solution was placed in a 384 well plate followed by addition of 1 μl of 2 mM DMSO stock containing the test compound (final compound concentration 30 μM). The plate was preincubated for about 10 minutes at 30° C. and the reaction initiated by addition of 10 μl of enzyme (final concentration 45 nM) and 1 mM DTT. Rates of reaction were obtained using a BioRad Ultramark plate reader (Hercules, Calif.) over a 5 minute read time at 30° C.

We go through 17 compounds from patent US6653300B2, “Pyrazole compounds useful as protein kinase inhibitors” (Vertex Pharmaceuticals Incorporated, priority 2000, dated 2003).

pKi: −log10 of the molar value. Like-named read-outs stand apart in the source and are kept apart here.

T1 sequence (P49841 whole entry, the tested form may be a part): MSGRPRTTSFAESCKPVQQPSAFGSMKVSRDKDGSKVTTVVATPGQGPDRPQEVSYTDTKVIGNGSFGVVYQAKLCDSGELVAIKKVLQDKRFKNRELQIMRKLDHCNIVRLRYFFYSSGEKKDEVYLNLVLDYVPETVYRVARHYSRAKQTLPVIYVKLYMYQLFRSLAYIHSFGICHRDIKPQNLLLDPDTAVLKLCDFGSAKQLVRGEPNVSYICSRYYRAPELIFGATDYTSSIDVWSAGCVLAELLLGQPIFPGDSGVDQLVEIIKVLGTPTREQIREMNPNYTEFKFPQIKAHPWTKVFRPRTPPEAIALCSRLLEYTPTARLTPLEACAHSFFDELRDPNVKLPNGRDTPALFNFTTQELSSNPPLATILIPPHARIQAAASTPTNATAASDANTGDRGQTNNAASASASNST
T3 sequence (P12931 whole entry): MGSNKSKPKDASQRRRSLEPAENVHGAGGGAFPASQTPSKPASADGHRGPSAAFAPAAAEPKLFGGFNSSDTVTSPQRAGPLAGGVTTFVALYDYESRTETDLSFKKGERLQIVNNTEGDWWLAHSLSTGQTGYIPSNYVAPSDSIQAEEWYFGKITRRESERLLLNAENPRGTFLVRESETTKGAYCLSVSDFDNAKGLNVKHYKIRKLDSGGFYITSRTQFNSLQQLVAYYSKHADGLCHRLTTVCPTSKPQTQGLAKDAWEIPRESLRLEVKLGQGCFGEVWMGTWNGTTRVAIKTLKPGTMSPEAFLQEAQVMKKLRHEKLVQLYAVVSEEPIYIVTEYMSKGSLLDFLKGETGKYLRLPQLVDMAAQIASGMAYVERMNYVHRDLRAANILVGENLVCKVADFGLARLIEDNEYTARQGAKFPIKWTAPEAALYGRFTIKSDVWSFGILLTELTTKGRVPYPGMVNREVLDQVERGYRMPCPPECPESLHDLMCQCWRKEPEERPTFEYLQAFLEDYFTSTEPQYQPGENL

`Cc1cccc(Sc2nc(Nc3cc(C)[nH]n3)c3ccccc3n2)c1` [IIa-14, [2-(3-Methylphenylsulfanyl)-quinazolin-4-yl]-(5-methyl-2H-pyrazol-3-yl)-amine] registered a melting point of 249 to 250 °C. This compound also had a negative logarithm of the Ki (pKi) in series [1] of 6.00 to 7.00. This compound showed a pKi in series [2] of over 6.00. For the same compound, in series [3], the pKi is over 7.00.
Turning to `CC(=O)Nc1ccc(Sc2nc(Nc3cc(C)[nH]n3)c3ccccc3n2)cc1` [IIa-38, [2-(4-Acetamidophenylsulfanyl)-quinazolin-4-yl]-(5-methyl-2H-pyrazol-3-yl)-amine], the figures for the pKi in series [1], in series [2] and in series [3] were 6.00 to 7.00, 4.70 to 6.00 and over 7.00, respectively.
`COc1cccc2c(Nc3cc(C)n[nH]3)nc(Sc3ccc(NC(C)=O)cc3)nc12` [IIa-44, [2-(4-Acetamidophenylsulfanyl)-8-methoxy-quinazolin-4-yl]-(5-methyl-2H-pyrazol-3-yl)-amine] displayed a melting point of 247 to 249 °C. The negative-log Ki (pKi) in series [4] (read-out: Ki value for SRC) was 5.22 to 6.00. The negative-log Ki (pKi) in series [2] is 4.70 to 6.00. The negative-log Ki (pKi) in series [3] was over 7.00.
`CC(=O)Nc1ccc(Sc2nc(Nc3cc(C)[nH]n3)c3cccc(O)c3n2)cc1` [IIa-52, [2-(4-Acetamido-phenylsulfanyl)-8-hydroxyquinazolin-4-yl]-(5-methyl-2H-pyrazol-3-yl)-amine]: the melting point lay within 258 to 259 °C. In series [1], this compound gave a pKi of 5.15 to 6.00. Besides, the negative logarithm of the Ki (pKi) in series [2] was 4.70 to 6.00. Besides, in series [3], the pKi is over 7.00.
`CCCS(=O)(=O)Nc1ccc(Sc2nc(Nc3cc(C)n[nH]3)c3ccccc3n2)cc1` [IIa-54, (5-Methyl-2H-pyrazol-3-yl)-{2-[4-(propane-1-sulfonylamino)-phenylsulfanyl]-quinazolin-4-yl}-amine] gave a melting point of 272 to 273 °C. The negative logarithm of the Ki (pKi) in series [1] was 6.00 to 7.00. In addition, the pKi in series [4] (read-out: Ki value for SRC) was 5.22 to 6.00. Moreover, the pKi in series [2] is 4.70 to 6.00. In series [3], the negative logarithm of the Ki (pKi) is over 7.00.
On to `c1ccc2c(Nc3cc(C4CC4)[nH]n3)nc(Nc3ccc4cc[nH]c4c3)nc2c1` [IIc-22, (5-Cyclopropyl-2H-pyrazol-3-yl)-[2-(1H-indol-6-ylamino)-quinazolin-4-yl]-amine], for which the pKi is over 7.00 in series [1], over 7.00 in series [4] (read-out: Ki value on SRC), 4.70 to 6.00 in series [5] and over 7.00 in series [3].
For the compound `N#CCc1ccc(Nc2nc(Nc3cc(C4CC4)[nH]n3)c3ccccc3n2)cc1` [IIc-31, [2-(4-Cyanomethylphenylamino)-quinazolin-4-yl]-(5-cyclopropyl-2H-pyrazol-3-yl)-amine], the pKi in series [1] is over 7.00; in series [4] (read-out: Ki value on SRC), over 7.00; in series [5], 4.70 to 6.00; in series [3] it was over 7.00.
For `c1ccc2c(Nc3cc(C4CC4)[nH]n3)nc(Nc3ccc4[nH]ncc4c3)nc2c1` [IIc-37, (5-Cyclopropyl-2H-pyrazol-3-yl)-[2-(1H-indazol-5-ylamino)-quinazolin-4-yl]-amine], the pKi was over 7.00 in series [1], over 7.00 in series [4] (read-out: Ki value on SRC), 4.70 to 6.00 in series [5] and over 7.00 in series [3].
`c1cncc(CNc2nc(Nc3cc(C4CC4)[nH]n3)c3ccccc3n2)c1` [IIc-38, (5-Cyclopropyl-2H-pyrazol-3-yl)-[2-(pyridin-3-ylmethylamino)-quinazolin-4-yl]-amine] registered a melting point of 193 °C. The pKi in series [1] was over 7.00. In series [4] (read-out: Ki value on SRC), the pKi was over 7.00. Also, in series [3], the pKi was over 7.00.
The compound `CCc1cccc(Nc2nc(Nc3cc(C4CC4)[nH]n3)c3ccccc3n2)c1` [IIc-41, (5-Cyclopropyl-2H-pyrazol-3-yl)-[2-(3-ethylphenylamino)-quinazolin-4-yl]-amine] returned a melting point of 186 to 188 °C. Also, in series [1], the pKi was 6.00 to 7.00. For the same compound, the pKi in series [4] (read-out: Ki value on SRC) is over 7.00. In series [3], this compound showed a pKi of over 7.00.
In turn, `COc1ccc(Nc2nc(Nc3cc(C4CC4)[nH]n3)c3ccccc3n2)cc1OC` [IIc-43, (5-Cyclopropyl-2H-pyrazol-3-yl)-[2-(3,4-dimethoxyphenylamino)-quinazolin-4-yl]-amine] came in with a melting point of 144 °C. In addition, in series [1], the pKi was 6.00 to 7.00. Further, the negative logarithm of the Ki (pKi) in series [4] (read-out: Ki value on SRC) is over 7.00. The compound also gave a negative-log Ki (pKi) in series [3] of over 7.00.
With `COc1cccc(Nc2nc(Nc3cc(C4CC4)[nH]n3)c3ccccc3n2)c1` [IIc-44, (5-Cyclopropyl-2H-pyrazol-3-yl)-[2-(3-methoxyphenylamino)-quinazolin-4-yl]-amine], the melting point was in the range of 207 to 211 °C. This compound also showed a pKi in series [1] of 6.00 to 7.00. Further, the pKi in series [4] (read-out: Ki value on SRC) is over 7.00. Further, the pKi in series [3] was over 7.00.
For the compound `Cc1ccc(Cl)c(Nc2nc(Nc3cc(C)[nH]n3)c3ccccc3n2)c1` [IIc-51, [2-(2-Chloro-5-methylphenylamino)-quinazolin-4-yl]-(5-methyl-2H-pyrazol-3-yl)-amine], the melting point was in the range of 246 to 247 °C. The pKi in series [1] was 6.00 to 7.00. Besides, the pKi in series [4] (read-out: Ki value on SRC) is over 7.00. Also, in series [3], the pKi was over 7.00.
Compound `Cc1cc(Nc2nc(Nc3ccc(N)cc3)nc3ccccc23)n[nH]1` [IIc-66, [2-(4-Aminophenylamino)-quinazolin-4-yl]-(5-methyl-2H-pyrazol-3-yl)-amine] yielded a melting point of 164 to 167 °C. This compound also had a pKi in series [1] of 6.00 to 7.00. Further, in series [4] (read-out: Ki value for SRC), the pKi was 5.22 to 6.00. The same compound showed a pKi in series [3] of 6.00 to 7.00.
On to `Cc1cc(Nc2nc(Nc3ccc(NC(=O)C(C)C)cc3)nc3ccccc23)n[nH]1` [IIc-68, [2-(4-Isobutyrylamino-phenylamino)-quinazolin-4-yl]-(5-methyl-2H-pyrazol-3-yl)-amine], for which the melting point was in the range of 176 to 179 °C. The pKi in series [1] was 5.15 to 6.00. In series [4] (read-out: Ki value for SRC), the pKi was 5.22 to 6.00. The compound further showed a pKi in series [3] of over 7.00.
The compound `c1ccc(OCc2nc(Nc3cc(C4CC4)[nH]n3)c3ccccc3n2)cc1` [IId-1, (5-Cyclopropyl-2H-pyrazol-3-yl)-(2-phenoxymethyl-quinazolin-4-yl)-amine] returned a melting point of 265 to 267 °C. In series [1], this compound gave a pKi of over 7.00. For the same compound, the pKi in series [4] (read-out: Ki value on SRC) was over 7.00. The same compound showed a pKi in series [3] of over 7.00.
Compound `c1ccc(COCc2nc(Nc3cc(C4CC4)[nH]n3)c3ccccc3n2)cc1` [IId-2, (2-Benzyloxymethyl-quinazolin-4-yl)-(5-cyclopropyl-2H-pyrazol-3-yl)-amine] yielded a melting point of 211 to 213 °C. For the same compound, the negative logarithm of the Ki (pKi) in series [1] was 6.00 to 7.00. Further, the pKi in series [4] (read-out: Ki value on SRC) is over 7.00. This compound gave a pKi in series [3] of over 7.00.
